Legend:
Format in all cases: in vivo
[1] = tested on: Echinochloa crus-galli (ECHCG); assay: Pre-emergence herbicidal activity, glasshouse pot test; conditions: Echinochloa crus-galli, 312 h; Rate 250 g/ha; pre-emergence spray; evaluated after 13 days; read-out: Pre-emergence activity ECHCG (100=total damage to plant; 0=no damage to plant)
Method: (§1) Seeds of a variety of test species were sown in standard soil in pots. After cultivation for one day (pre-emergence) or after 8 days cultivation (post-emergence) under controlled conditions in a glasshouse (at 24/16° C., day/night; 14 hours light; 65% humidity), the plants were sprayed with an aqueous spray solution derived from the formulation of the technical active ingredient in acetone/water (50:50) solution containing 0.5% Tween 20 (polyoxyethelyene sorbitan monolaurate, CAS RN 9005-64-5). The test plants were then grown in a glasshouse under controlled conditions in a glasshouse (at 24/16° C., day/night; 14 hours light; 65% humidity) and watered twice daily. After 13 days for pre and post-emergence, the test was evaluated (100=total damage to plant; 0=no damage to plant).
(§2) Lolium perenne (LOLPE), Alopecurus myosuroides (ALOMY), Echinochloa crus-galli (ECHCG), and Avena fatua (AVEFA).

Lolium perenne (LOLPE) [2] = assay: as above; conditions: Lolium perenne, 312 h; Rate 250 g/ha; pre-emergence spray; evaluated after 13 days; read-out: Pre-emergence activity LOLPE (100=total damage to plant; 0=no damage to plant)
Method: as §1, §2

Avena fatua (AVEFA) [3] = assay: as above; conditions: Avena fatua, 312 h; Rate 250 g/ha; pre-emergence spray; evaluated after 13 days; read-out: Pre-emergence activity AVEFA (100=total damage to plant; 0=no damage to plant)
Method: as §1, §2

[4] = tested on: Alopecurus myosuroides (ALOMY); assay: as above; conditions: Alopecurus myosuroides, 312 h; Rate 250 g/ha; pre-emergence spray; evaluated after 13 days; read-out: Pre-emergence activity ALOMY (100=total damage to plant; 0=no damage to plant)
Method: as §1, §2

[5] = tested on: Echinochloa crus-galli (ECHCG); assay: Post-emergence herbicidal activity, glasshouse pot test; conditions: Echinochloa crus-galli, 312 h, rate 250 g/ha, evaluated after 13 days, glasshouse, read-out: Post-emergence activity ECHCG (100=total damage to plant; 0=no damage to plant)
Method: as §1, §2

Lolium perenne (LOLPE) [6] = assay: as above; conditions: Lolium perenne, 312 h, rate 250 g/ha, evaluated after 13 days, glasshouse, read-out: Post-emergence activity LOLPE (100=total damage to plant; 0=no damage to plant)
Method: as §1, §2

Avena fatua (AVEFA) [7] = assay: as above; conditions: Avena fatua, 312 h, rate 250 g/ha, evaluated after 13 days, glasshouse, read-out: Post-emergence activity AVEFA (100=total damage to plant; 0=no damage to plant)
Method: as §1, §2

[8] = tested on: Alopecurus myosuroides (ALOMY); assay: as above; conditions: Alopecurus myosuroides, 312 h, rate 250 g/ha, evaluated after 13 days, glasshouse, read-out: Post-emergence activity ALOMY (100=total damage to plant; 0=no damage to plant)
Method: as §1, §2

Row | Structure (SMILES) | pest or weed control at 250 g/ha [1] [%] | pest or weed control at 250 g/ha (Lolium perenne (LOLPE) [2]) [%] | pest or weed control at 250 g/ha (Avena fatua (AVEFA) [3]) [%] | pest or weed control at 250 g/ha [4] [%] | pest or weed control at 250 g/ha [5] [%] | pest or weed control at 250 g/ha (Lolium perenne (LOLPE) [6]) [%] | pest or weed control at 250 g/ha (Avena fatua (AVEFA) [7]) [%] | pest or weed control at 250 g/ha [8] [%]
1 | CCc1ccc(Oc2ccc(Cl)cc2)cc1C1=C(O)[C@H]2CC[C@H](C2)C1=O (single isomer, unassigned) [Example A-88] | 100 | 100 | 60 | 80 | 90 | 50 | 70 | 70
2 | CCc1ccc(Oc2ccc(Cl)cc2F)cc1C1=C(O)[C@H]2CC[C@H](C2)C1=O (single isomer, unassigned) [Example A-89] | 100 | 100 | 80 | 80 | 100 | 60 | 90 | 90
3 | CCc1ccc(Oc2ccc(Cl)cc2Cl)cc1C1=C(O)[C@H]2CC[C@H](C2)C1=O (single isomer, unassigned) [Example A-90] | 100 | 90 | 70 | 70 | 90 | 80 | 30 | 60
4 | CCc1ccc(Oc2ccc(Br)cc2)cc1C1=C(O)[C@H]2CC[C@H](C2)C1=O (single isomer, unassigned) [Example A-91] | 100 | 100 | 70 | 80 | 100 | 80 | 90 | 90
5 | CCc1ccc(Oc2ccc(F)cc2)cc1C1=C(O)[C@H]2CC[C@H](C2)C1=O (single isomer, unassigned) [Example A-92] | 100 | 90 | 30 | 40 | 80 | 30 | 10 | 20
6 | CCc1ccc(Oc2ccc(Cl)c(F)c2)cc1C1=C(O)[C@@H]2CC[C@](C)(C1=O)C2(C)C (single isomer, unassigned) [Example A-93] | 100 | 90 | 60 | 60 | 50 | 20 | 20 | 60
7 | CCc1ccc(Oc2ccc(Cl)cc2Cl)cc1C1=C(O)[C@@H]2CC[C@](C)(C1=O)C2(C)C (single isomer, unassigned) [Example A-94] | 90 | 100 | 20 | 40 | 40 | 20 | 0 | 10
8 | CCc1ccc(Oc2ccc(Cl)cc2F)cc1C1=C(O)[C@@H]2CC[C@](C)(C1=O)C2(C)C (single isomer, unassigned) [Example A-95] | 90 | 90 | 80 | 70 | 80 | 50 | 80 | 60
9 | CCc1ccc(Oc2ccc(Cl)cc2)cc1C1=C(O)[C@@H]2CC[C@](C)(C1=O)C2(C)C (single isomer, unassigned) [Example A-96] | 90 | 100 | 40 | 70 | 60 | 30 | 20 | 60
10 | Cc1ccc(Oc2ccc(Cl)cc2)cc1C1=C(O)C(C)(C)OC(C)(C)C1=O [Example A-1] | 0 | – | 0 | 0 | 60 | – | 0 | 20
